Assay [1] deals with Fusarium graminearum (strain 4528). The note with it: cited from earlier work.
Assay [2] relates to Fusarium fungi. The experiment in a line: Field trial, winter wheat "Slade", Ulhówek (Poland) 2004: natural Fusarium ear infection, DON and ZEA content of grains (HPLC/MS), grain yield. Format: in vivo. The settings on record: for ZEA content of the grains / Infection (ears infected by Fusarium fungi) / Grain yield: dose prohexadione-Ca 50, metconazole 90; for ZEA content of the grains: relative to untreated = 100% (0.073 mg per kg of harvested grains); for Infection (ears infected by Fusarium fungi): relative to untreated = 100% (4.5% of the ears infected), assessed Jul. 22, 2004; for Grain yield: relative to untreated = 100% (8.6 t/ha).

Assay [3] deals with Fusarium fungi. Kind of assay: Field trial, winter wheat "Ritmo", Gronau 2004: natural Fusarium ear infection, DON and NIV content of grains (HPLC/MS), grain yield. Format: in vivo.
For assay [4], the system named is mildew. The note with it: pre-treatment; cited from earlier work.
In assay [5] the test system is Fusarium graminearum. The settings on record: in vivo; cited from earlier work.

As to `COc1ccc(C(O)(c2cncnc2)C2CC2)cc1` (centres unmarked) [ancymidole], in assay [1], the “Inhibition of mycelium growth” value is recorded as “only weakly” and the “Inhibition of the formation of 3-acetyldeoxynivalenol (3-ADON)” value is “only weakly”.

In the case of `CC1(C)CCC(Cc2ccc(Cl)cc2)C1(O)Cn1cncn1` (centres unmarked) [metconazole, reference compound], in assay [2] (treatment date 10.6.), the “ZEA content of the grains” value was 53%, the “Infection (ears infected by Fusarium fungi)” value is listed as 18% and the Grain yield was 108%. Also, in assay [2] (treatment date 19.6.), the “ZEA content of the grains” value is listed as 33%, the “Infection (ears infected by Fusarium fungi)” value was 18% and the Grain yield was found to be 110%.

On to prohexadione-calcium, for which the “Content of the grains of NIV” value in assay [3] (in vivo) amounted to 75%. The “Content of the grains of DON” value in assay [3] (relative to untreated = 100% (22.4 mg of DON per kg of harvested grains), 50 g/ha, Jun. 7, 2004) turned out to be 81%. Further, the Grain yield in assay [3] (relative to untreated = 100% (2.9 t/ha), 50 g/ha, Jun. 7, 2004) stood at 109%; in assay [2] (treatment date 10.6.), 98%; in assay [2] (treatment date 19.6.), 105%. In addition, the “Infection (ears infected by Fusarium fungi)” value in assay [3] (relative to untreated = 100% (43.8% of the ears infected), 50 g/ha applied Jun. 7, 2004 at beginning of flowering, assessed Jun. 28, 2004) amounted to 91%; in assay [2] (treatment date 10.6.), 78%; in assay [2] (treatment date 19.6.) it was 51%. In addition, the “ZEA content of the grains” value came to 23% in assay [2] (treatment date 10.6.) and 32% in assay [2] (treatment date 19.6.). Besides, in assay [2] (winter wheat Slade, Ulhówek 2004, no DON figures printed), the “DON content of the grains (statement in words)” value is “reduces the DON and ZEA contents considerably”. The “Reduction of infection of wheat with mildew” value in assay [4] is listed as “cannot be reduced”.

Turning to `CC(C)C(O)(c1ccc(OC(F)(F)F)cc1)c1cncnc1` (centres unmarked) [flurprimidole], in assay [1], the “Inhibition of mycelium growth” value was “only weakly” and the “Inhibition of the formation of 3-acetyldeoxynivalenol (3-ADON)” value is reported as “only weakly”.

As to `C[N+](C)(C)CCCl.[Cl-]` [chlormequat chloride, 2-chloroethyltrimethylammonium chloride], the “Effect on the susceptibility of wheat ears to infection with Fusarium graminearum” value in assay [5] is “no direct effect”.

The values are drawn from patent US20090131519A1 (priority 2005, published 2009).
